Assay results from patent publication US9526712B2, “Methods and agents for preventing and treating plasma cell dyscrasias” (NEW YORK UNIVERSITY, priority 2013, dated 2016).

Tests used:
[1] = tested on: bone marrow (BM) mononuclear cells isolated from a patient with smoldering multiple myeloma (SMM); assay: Cellular proliferation of SMM bone marrow mononuclear cells; assay type: cell-based, human; conditions: 100 nM to 10000 nM, 72 hr
Text: To explore the effects of SAC in the context of SMM, the present inventors tested the activity of SAC in bone marrow (BM) mononuclear cells isolated from a patient with smoldering multiple myeloma (SMM). To isolate the BM mononuclear cells, heparinized BM samples were freshly obtained from a SMM patient, diluted in PBS, and subjected to Ficoll-Hypaque density separation. Mononuclear cells are carefully collected from the PBS-Ficoll interface, washed in PBS and pelleted. The cell proliferation assay was performed by seeding the SMM BM mononuclear cells in 96-well plates at a density of 5000 cells per well. After overnight incubation, cells were treated with SAC at concentrations ranging from 100 nM to 10000 nM. After a 72 hr incubation period, proliferation was assessed using a tetrazolium dye reduction assay (CellTiter 96 AQueous Non-Radioactive Cell Proliferation Assay; Promega, Madison, Wis.). Absorbance was recorded on a microplate reader at 490 nm. Cellular proliferation was expressed as a percentage with vehicle-treated cells set at 100%. Each assay was performed in triplicate with mean values reported.

[2] = tested on: KMS11 and ARP-1 MM cells expressing Gluc; assay: Gluc (Gaussia luciferase) secretion screen; assay type: cell-based, human; conditions: 5 μM compound, 24 hours, % RLU relative to DMSO control
Text: Using decreased protein processing in the secretory pathway as a measurable hallmark of ER stress, the screen described herein employs the naturally secreted Gaussia luciferase (Gluc) as a reporter that can be easily monitored through extracellular release of luciferase activity in real time. KMS11 and ARP-1 MM cells expressing Gluc were exposed to compounds in a natural products library in order to identify those which potentially induce ER stress as measured by inhibition of Gluc secretion. Both KMS11 and ARP-1 are human MM cells lines routinely used in the literature as in vitro models of MM. See, for example, Paterson et al., Br J Haematol, 2004, 124, 595-603; Pedranzini et al., Cancer Res, 2006, 66, 9714-9721; Stein et al., Clin Cancer Res, 2009, 15, 2808-2817; St-Germain J R. et al., Proc Natl Acad Sci USA, 2009, 106, 20127-20132; Gojo et al., Clin Cancer Res, 2002, 8, 3527-3538; Drucker et al., Carcinogenesis, 2006, 27, 197-204; Weiss et al., Br J Cancer, 2012, 107, 1844-1852; and Wang et al., Clin Cancer Res, 2006, 12, 49-56; the entire content of each of which is incorporated herein by reference. […] For screening, KMS11 and ARP1 cells were seeded in 96-well plates and treated with 5 μM of compounds from the Spectrum library (Microsource Discoveries) for 24 hours. Conditioned medium from each compound treatment was harvested to assay Gluc secretion alongside samples treated with DMSO alone, BTZ and TM as controls. Compounds of interest were considered to be those that inhibit Gluc secretion in both cell lines at least 30% after 24 hours treatment. See, for example, FIG. 1. […] For screening, […] Conditioned medium from each compound treatment was harvested to assay Gluc secretion alongside samples treated with DMSO alone, BTZ and TM as controls. Compounds of interest were considered to be those that inhibit Gluc secretion in both cell lines by at least 30% after 24 hours treatment. […]

[3] = tested on: panel of 60 different cancer cell lines; assay: NCI 60 cell screen growth inhibitory activity; assay type: cell-based; conditions: NCI 60 cell panel
Text: Although SAC has been used to treat other types of cancer including colon, lung, breast and liver, the present inventors are unaware of any studies pertaining to its efficacy in MM, MGUS or SMM. One major difference between these types of cancers relates to the fact that those that have been assessed with regard to SAC' s efficacy are solid tumors, whereas MM is a blood cancer. Further to this point, the present inventors submitted SAC for analysis in the Developmental Therapeutics Program at the NCI/NIH. The growth inhibitory activity of SAC was assessed in the NCI 60 cell screen, which is a panel of 60 different cancer cell lines. […] SAC anti-cancer activity must, therefore, be determined empirically for each cancer, due to the lack of predictability of response. Therefore, a compound's ability to act as a therapeutic agent in one cancer, e.g. colon, is not necessarily predictive of its properties with respect to a different cancer, even a related cancer. It is also noteworthy that no MM cell lines are represented in the 60 cell panel. This underscores the fact that, in advance of the present findings, MM cell lines were not thought to be suitable targets for examining SAC anti-cancer activity.

KMS11 MM cells [4] = assay: Cellular proliferation by MTT assay (CellTiter 96 AQ); assay type: cell-based; conditions: Homo sapiens, KMS-11, 72 hr treatment
Text: (§1) The growth inhibitory activity of SAC was further characterized by MTT assay. These experiments assess cellular proliferation using the CellTiter 96 AQ Non-Radioactive Cell Proliferation Assay (Promega). This assay determines the number of living cells based upon the bioreduction of MTS tetrazolium compound into a colored formazan product. The quantity of product, as measured by absorbance on a microplate reader at 495 nm, is directly proportional to the number of living cells in culture. All cells were seeded in 96-well plates at a density of 5,000 cells per well. After overnight incubation, cells were treated with SAC at the indicated concentrations. After a 72 hr incubation period, proliferation was assessed. Cellular proliferation was expressed as a percentage with vehicle-treated cells set at 100%. See, for example, FIG. 2.
(§2) The cell proliferation assay performed to generate the results presented in FIG. 5, for example, was performed as described elsewhere herein. Briefly, all cells were seeded in 96-well plates at a density of 5000 cells per well. After overnight incubation, cells were treated with a candidate compound at concentrations ranging from 100 nM to 10000 nM. After a 72 hr incubation period, proliferation was assessed using a tetrazolium dye reduction assay (CellTiter 96 AQueous Non-Radioactive Cell Proliferation Assay; Promega, Madison, Wis.). Absorbance was recorded on a microplate reader at 490 nm. Cellular proliferation was expressed as a percentage with vehicle-treated cells set at 100%. Each assay was performed in triplicate with mean values reported.

ARP1 MM cells = assay: as above; assay type: cell-based; conditions: Homo sapiens, ARP-1, 72 hr treatment
Text: as §1, §2

[5] = tested on: KMS11 and ARP1 multiple myeloma cells; assay: XBP1 cleavage assay (semi-quantitative RT-PCR); assay type: cell-based, human; conditions: 0.5 uM SAC, 24 hours
Experimental: The XBP1 cleavage assay used to generate the results presented in FIG. 6 was performed as follows. KMS11 and ARP1 cells were treated with 0.5 uM SAC or 10 ng/ml tunicamycin (TM, positive control) for 24 hours. Total RNA was isolated from lysed cells with the RNeasy Mini kit (Qiagen, Germantown, Md., USA). XBP1 splicing was assessed by semi-quantitative RT-PCR as described previously (Lin, et al. Science, 2007. 318(5852):944-9; Manga et al. Pigment Cell Melanoma Res, 2010. 23(5):627-34; the entire content of each of which is incorporated herein by reference). cDNA was produced from total RNA preps using ImProm-II Reverse Transcription System (Promega). Primers spanning the fragment of XBP1 containing the intron targeted by Irela were used: 5′-[…]-3′ and 5′-[…]-3′. The thermal PCR cycling conditions are as follows: 95° C. for 5 min, 95° C. for 1 min, 58° C. for 30 s, 72° C. for 30 s, and 72° C. for 5 min with 35 cycles of amplification. In order to properly distinguish the PCR products, samples were digested with Pst1 (New England Biolabs, Ipswich, Mass., USA) that only cuts the unspliced cDNA (Calfon et al. Nature, 2002. 415(6867):92-6). Products were then separated on a 2.0% agarose/1× TAE gel and visualized by ethidium bromide.

KMS11 MM cells [6] = assay: Western blotting of UPR markers and apoptotic marker; assay type: cell-based, human; conditions: western blot
Text: In order to investigate the mechanism of SAC mediated ER stress response, the present inventors evaluated key unfolded protein response (UPR) markers including phospho-eIF2α and BIP as well as the apoptotic marker cleaved PARP by standard western blotting techniques. […] See also FIG. 3.

Compound | inhibition of cellular proliferation [1] | inhibition of Gluc secretion [2] | mean growth percent across all 60 cell lines [3] | IC50 (KMS11 MM cells [4]) | IC50 (ARP1 MM cells) | splicing of XBP1 [5] | BIP expression (KMS11 MM cells [6]) | cleavage of PARP (KMS11 MM cells [6]) | phosphorylation of eIF2-α (KMS11 MM cells [6]) | inhibition of Gluc secretion ([2]; listed as alliicin)
C=CCSC[C@H](N)C(=O)O [SAC, S-allylcysteine] | dose-dependent inhibition of cellular proliferation | inhibited Gluc secretion as effectively as 5 μM BTZ | 106 | 1500 nM | 1900 nM | enhanced splicing of the UPR transcription factor XBP1 | increased BIP expression | cleavage of PARP | enhanced phosphorylation of eIF2-α | –
CCCSC[C@H](N)C(=O)O [SPC, S-propyl cysteine, reference compound] | – | – | – | > 10000 nM | > 10000 nM | – | – | – | – | –
C=CC[S+]([O-])C[C@H](N)C(=O)O (stereo partly shown) [alliin, Allylcysteine sulfoxide] | – | not found to be effective at inhibiting GLUC secretion | – | – | – | – | – | – | – | did not exhibit an ability to target ER stress mediated pathways
